Experimental data published in patent publication US20230042936A1, “PYRIDO[2,3-d]PYRIMIDIN-7(8H)-ONES AS CDK INHIBITORS” (PROSENESTAR LLC, priority 2020, published 2023).
Entries after “also recorded” stand apart in the source; their conditions may differ.

Tests used:
Cdk2/4/6_KO MEFs = assay: Cell growth in Cdk-deficient MEFs; type: cell-based, mouse; conditions: relative cell count day 6 versus day 3; FIG. 4
Experimental: (§1) Cdk-deficient MEFs were plated in 10-cm dish in triplicate (100,000/well) and treated with the selected compounds at the indicated concentration, based on GI50 previously determined in the MDA-MB-231 cell line. Cells were counted in an optical microscope 3 and 6 days after treatment to estimate the relative cell growth in each condition.
(§2) To further investigate the relative functional dependence of the subject compounds on CDK2 versus CDK4 or CDK6, the specific effects of PS004, PS006 and PS009 were tested on CDK-deficient mouse embryonic fibroblasts (MEFs) obtained from Cdk2 knock out, Cdk4; Cdk6-double knock out and Cdk2; Cdk4; Cdk6-triple knock out mouse models.

Cdk4/6_KO MEFs = assay: Cell growth in Cdk-deficient MEFs; type: cell-based, mouse; conditions: relative cell count day 6 versus day 3; FIG. 4
Experimental: as §1, §2

[1] = system: pRB-wild-type and pRB-deficient glioblastoma cells (U87MG, SW1783); assay: GI50 compared in pRB-wild-type and pRB-deficient cells; type: cell-based, human; conditions: comparison of GI50, Table 4
Experimental: (§3) […]. Cell counts were determined by the Opera software (Perkin Elmer) and data were further processed with SPSS software. GI50 was calculated by estimating the absolute IC50 using dose-response inhibition tool in Prism6 (Graphpad Software Inc.).
(§4) CDK4/6 kinases drive cell cycle progression by phosphorylating the retinoblastoma protein (pRB), thus, releasing its repressive activity on transcription. Accordingly, CDK4/6 specific inhibitors are inefficient in pRB-deficient cells, as cell cycle transcription is induced with independence of CDK4/6 activity. The subject compounds were therefore evaluated to what extent depend on the presence of a functional pRB. Two pairs of human cancer cell lines representing pRB-wild-type and pRB-deficient breast cancer and glioblastoma were tested. […].

[2] = Metabolic stability in microsomes; type: in vitro ADME; conditions: human, 60-90 min test; for microsomal CLint: read-out: Metabolic stability, Human microsomes: Clearance; for half-life: read-out: Metabolic stability, Human microsomes: t1/2
Caco-2 cells = assay: Permeability Caco-2 cells; type: in vitro ADME
[3] = Permeability Caco-2 cells; type: in vitro ADME; conditions: human, Caco-2
phospho RB1 Ser807/811 = assay: In vivo target engagement (phospho-RB staining of tissues); set-up: species or system mice; conditions: FIG. 7
Excerpt: FIG. 7 depicts the effect of PS004, PS006 and PS009 on the phosphorylation of the retinoblastoma protein in different tissues using antibodies against phospho RB1 Ser807/811. Micrographs are representative from three different mice per treatment.
For histological analysis, mice tissues and human xenografts were fixed in 10%-buffered formalin (Sigma) and embedded in paraffin wax. Sections of 3- or 5-μm thickness were stained with haematoxylin and eosin. Additional immunohistochemical examination was performed using a specific antibody against phospho-Rb (Ser807/811; Cell Signaling) or Ki67 (DAKO).
For in vivo evaluation, the target engagement for the subject compounds in vivo was tested first.

[4] = system: SW1783 glioblastoma cell line (pRB mutant); assay: Proliferation assay: determination of GI50; type: cell-based; conditions: Homo sapiens, Table 4, n = 4, read-out: Growth inhibition GI50, Glioblastoma pRB Mutant SW1783
Experimental: (§5) The following human tumor cell lines, all Retinoblastoma (Rb)-proficient, were used in this study: MDA-MB231 (breast cancer), MDA-MB453 (breast cancer), U87MG (glioblastoma) and H460 (lung cancer). MDA-MB468 (breast cancer) and SW1783 (glioblastoma) Rb-deficient cells were also included in the study, as well as the MCF10A non-transformed mammary epithelial cell line. Tumor cell lines were maintained in DMEM or RPMI-1640 medium, depending on the cell line, supplemented with 10% FBS. MCF10A cells were grown in complete mammary epithelial growth medium (MEGM, Lonza). Cell lines were authenticated by short tandem repeat (STR) loci profiling with the GenePrint® 10 System (Promega).
(§6) All human cancer cell lines (Table 2) were obtained from the American Type Culture Collection, and were maintained in DMEM (Hyclone) or RPMI-1640 medium (Sigma) supplemented with 10% fetal bovine serum (Sigma). Non-transformed MCF10 cell line was maintained in MEGM Mammary Epithelial Cell Growth Medium (Lonza). Immortalized mouse embryonic fibroblasts (MEFs) were maintained in DMEM with 10% fetal bovine serum.
(§7) 48 h later cells were fixed with PFA 4% for 15 minutes, stained with 10 μg/ml Hoechst 33342 (Molecular Probes, Thermo Fisher) for 30 minutes and washed twice with PBS. Cells were imaged in a high content screening system (Opera Phoenix™, Perkin Elmer) using a 20× dry objective (30 fields/well). Cell counts were determined by the Opera software (Perkin Elmer) and data were further processed with SPSS software. GI50 was calculated by estimating the absolute IC50 using dose-response inhibition tool in Prism6 (Graphpad Software Inc.).

[5] = system: MDA-MB-468 breast carcinoma cell line (pRB mutant); assay: Proliferation assay: determination of GI50; type: cell-based; conditions: Homo sapiens, Table 4, n = 2, read-out: Growth inhibition GI50, Breast cancer pRB Mutant MDA-MB-468
Experimental: as §5, §6, §7

MDA-MB-231 cells = assay: Senescence assay (β-Galactosidase staining); type: cell-based, human; conditions: at GI50; 3 days or 14 days exposure; FIGS. 2 and 3
Experimental: MDA-MB-231 cells were seeded in 6-well plates (65,000 cells/well) and treated with the selected compounds at their respective GI50. At 3, 7 and 14 days after treatment cells were stained with Senescence β-Galactosidase Staining Kit (Cell Signaling) at 37° C. overnight. Blue coloured senescent cells were counted with an optical microscope. Medium and compounds were refreshed every 3 days.
Cell cycle arrest can be irreversible in case of senescence induction.

[6] = system: pRB-wild-type and pRB-deficient breast cancer cells (MDA-MB-231, MDA-MB-468); assay: GI50 compared in pRB-wild-type and pRB-deficient cells; type: cell-based, human; conditions: comparison of GI50, Table 4
Experimental: as §3, §4

[7] = system: pRB phosphorylation and cell cycle markers in MDA-MB-231 and MDA-MB-468 cells; assay: Immunoblotting of cell cycle markers; type: cell-based, human; conditions: GI50 dose, 48 hours; FIG. 6
Experimental: MDA-MB-231 and MDA-MB-468 cells were treated with the indicated compounds using the G150 corresponding to the MDA-MB-231 cell line, and 48 hours later lysed in Laemmli buffer (60 mM Tris-Cl pH 6.8, 10% Glycerol, 2% SDS). Protein concentration was determined using BCA method (Pierce).

[8] = system: luminal-like (ZR75-1, T47D, MCF7) and non-luminal (HCC1143, MDA-MB-231, BT549, MDA-MB-468) breast cancer cell lines; assay: Relative cell growth in a panel of breast cancer cell lines (6 days); type: cell-based, human; conditions: 6 days at GI50 dose (determined in MDA-MB-231); FIG. 5
Experimental: Data are mean±s.e.m. (3 technical replicates).
Relative cell proliferation was calculated by counting cell number at day 6 in treated cells versus cells treated with vehicle (DMSO).

Compound | cell proliferation of Cdk2; Cdk4; Cdk6-triple knock out MEFs (Cdk2/4/6_KO MEFs) | cell proliferation of Cdk4; Cdk6-double knock out MEFs (Cdk4/6_KO MEFs) | efficiency in pRB-deficient versus pRB-wild-type glioblastoma cells [1] | microsomal CLint [2] | half-life [2] | Permeability Caco-2 cells: Permeability, grade in words (Caco-2 cells) | Papp [3] | phospho-RB staining in bone marrow, intestine and spleen (phospho RB1 Ser807/811) | GI50 [4] | GI50 [5] | SA-βGAL staining (senescence induction) (MDA-MB-231 cells) | efficiency in pRB-null versus pRB-wild-type breast cancer cells [6] | Permeability Caco-2 cells: Efflux, grade in words (Caco-2 cells) | levels of cell cycle markers [7] | pRB phosphorylation [7] | relative cell growth, luminal-like and non-luminal breast cancer cell lines [8]
CC(O)CCC1CCN(c2ccc(Nc3ncc4ccc(=O)n([C@@H]5CC6CCC5C6)c4n3)cc2)CC1 (stereo partly drawn) [PS004, 8-((2R)-bicyclo[2.2.1]heptan-2-yl)-2-((4-(4-(3-hydroxybutyl)piperidin-1-yl)phenyl)amino)pyrido[2,3-d]pyrimidin-7(8H)-one] | efficient in preventing cell proliferation | efficient in preventing cell proliferation | more inefficient | 40.8 µL/min/mg | 34 min | (low) | < 4.4 nm/s | evident RB target inhibition | 11.5 µM | 3 µM |  |  |  |  |  | 
CC(=O)c1c(C)c2cnc(Nc3ccc(N4CCC(CCCO)CC4)cc3)nc2n([C@@H]2CC3CCC2C3)c1=O (stereo partly drawn) [PS008, 6-acetyl-8-((2R)-bicyclo[2.2.1]heptan-2-yl)-2-((4-(4-(3-hydroxypropyl)piperidin-1-yl)phenyl)amino)-5-methylpyrido[2,3-d]pyrimidin-7(8H)-one] |  |  |  |  |  |  |  |  |  |  | induced high levels of SA-βGAL staining |  |  |  |  | 
CC(O)COC1CCN(c2ccc(Nc3ncc4ccc(=O)n([C@@H]5CC6CCC5C6)c4n3)cc2)CC1 (stereo partly drawn) [PS006, 8-((2R)-bicyclo[2.2.1]heptan-2-yl)-2-((4-(4-(2-hydroxypropoxy)piperidin-1-yl)phenyl)amino)pyrido[2,3-d]pyrimidin-7(8H)-one] | efficient in preventing cell proliferation | efficient in preventing cell proliferation | equally efficient | 119 µL/min/mg | 11.6 min | (high) | 46.2 nm/s |  | 2.2 µM | 2.5 µM | induced high levels of SA-βGAL staining; also recorded: induced high senescence | equally efficient | (poor) |  |  | 
CC(=O)c1c(C)c2cnc(Nc3ccc(N4CCC(CCCO)CC4)cc3)nc2n(C2CCCC2)c1=O [PS009, 6-acetyl-8-cyclopentyl-2-((4-(4-(3-hydroxypropyl)piperidin-1-yl)phenyl)amino)-5-methylpyrido[2,3-d]pyrimidin-7(8H)-one] | efficient in preventing cell proliferation | efficient in preventing cell proliferation | equally efficient | 33 µL/min/mg | 42 min | (low) | < 4.3 nm/s | evident RB target inhibition | 8 µM | 3.9 µM | induced high levels of SA-βGAL staining; also recorded: very high SA-BGAL activity induction | equally efficient |  | reduced levels of most cell cycle markers | strong inhibition | efficient in both pRB-wild-type and mutant cell lines; also recorded: efficiently inhibit both luminal and non-luminal breast cancer cells; also recorded: able to inhibit proliferation in non-luminal, pRB-mutant breast cancer cells lines
O=c1ccc2cnc(Nc3ccc(N4CCC(CCCO)CC4)c(F)c3)nc2n1[C@@H]1CC2CCC1C2 (stereo partly drawn) [PS003, 8-((2R)-bicyclo[2.2.1]heptan-2-yl)-2-((3-fluoro-4-(4-(3-hydroxypropyl)piperidin-1-yl)phenyl)amino)pyrido[2,3-d]pyrimidin-7(8H)-one] |  |  |  |  |  |  |  |  |  |  | induced high levels of SA-βGAL staining |  |  |  |  | 
O=c1ccc2cnc(Nc3ccc(N4CCC(CCCO)CC4)cc3)nc2n1C1CC2CCC1C2 (stereo not shown) [PD-0183812, reference compound] |  |  |  |  |  |  |  |  |  |  | induced high levels of SA-βGAL staining |  |  |  |  | 
